The source of these data is patent publication US20260357349A1, “METHODS OF IDENTIFYING AND TREATING CANCER” (Agency for Science, Technology and Research, priority 2022, published 2026).

The structures appear in SMILES notation.

One experiment has as its system NCC432 tumors. Briefly: Tumor formation and survival of NSG mice bearing NCC432 isogenic cells. The format is in vivo. The procedure: (§1) Colony formation of parental (WT) or PBRM1 knockout (KO) 786-O cells expressing shRNA against non-targeting control (NC), RELA, or NFKB1 cultured with a) 10% or b) 2% serum. c) Gene expression changes of NF-κB target genes in 786-O cells treated with 0.006 μM bortezomib (BTZ) or 0.6 µM Bay 11-7085 for 24 hours (n=3 technical replicates). * p-value<0.05 (two-sided t-test). […] A positive log fold change refers to gain in bortezomib treatment over DMSO. g) Colony formation of 786-O isogenic cells and h) NCC432 isogenic cells treated with bortezomib for a week. Tumor formation of isogenic 786-O cells (i) and NCC432 cells (j) treated with PBS control or 0.5 mg/kg bortezomib (BTZ) in NSG mice. (n=10 tumors per group for 786-O, and n=16 tumors for NCC432 PBS EV group and 12 tumors for NCC432 PBS PBRM1 group and 14 tumors for both NCC432 EV and PBRM1 BTZ groups). Data are presented as mean values+/−SEM. k) Model for the study.
Data are presented as median+/−25%. Lower whisker is smallest observation greater than or equal to 25% quantile-1.5*interquantile range (IQR). Upper whisker represents the largest observation less than or equal to 75%+1.5*IQR. Amount of normalized RELA protein in the c) input or d) co-immunoprecipitated with SMARCA4 from 3 independent runs. Data are presented as mean values+/−SD. e) Tornado plots of RELA and SMARCA4 ChIP-seq signals in parental 786-0 or PBRM1-KO 786-O cells treated with DMSO or 0.005 μM bortezomib for 9 hours. f) Kaplan-Meier curves of NSG mice bearing 786-O isogenic cells treated with PBRM1 control or 0.5 mg/kg bortezomib (WT: n=10 PBS arm, median survival=39 days; n=10 bortezomib arm, median survival=52 days, HR=4.1, p=3E-6, log rank test; KO: n=10 PBS arm, median survival=35 days, n=10 bortezomib arm, median survival=66 days, HR=4.1, p=3E-6, log rank test). g) Kaplan-Meier curves of NSG mice bearing NCC432 isogenic cells treated with PBRM1 control or 0.5 mg/kg bortezomib (EV: n=16 PBS arm, median survival=42 days; n=14 bortezomib arm, median survival=49 days, HR=2.5, p=0.0009, log rank test; PBRM1: n=12 PBS arm, median survival=55 days; n=14 bortezomib arm, median survival=58 days, HR=1.2, p=0.5, log rank test). h) 786-O PBRM1 WT or KO cells were screened against the high-specific SGC epigenetic probe collection and cell viability was measured by colony formation after 1 week of treatment relative to DMSO control.
All animal studies were conducted in compliance with animal protocols approved by Institutional Animal Care and Use Committee (IACUC) of Singapore. Female NOD/SCID mice (8-10 week old) were implanted subcutaneously with 1×10^6 786-0 cells with either wildtype PBRM1 or PBRM1 knocked out subcutaneously. Male NSG mice (The Jackson laboratory) were implanted with 1×10^6 A498, NCC2112 or NCC432 with or without PBRM1. Tumor volume was monitored every 3-4 days. Tumor volume was calculated as (length×width×width)×π/6. Animals were sacrificed when the tumor volume exceeded 2000 mm^3.
Bortezomib […] was given twice weekly (day1, day 4) to male NSG mice (The Jackson laboratory) via the tail vein. Tumor volume and body weight were monitored every 3-4 days.

Experiment [1] deals with NF-κB pathway (786-O cells). Briefly: RNA-seq after bortezomib, 786-O. In kind it is cell-based, human. The method, then:
as §1
In 6 wells, 1,000 786-O cells or 2,500 NCC432 cells were seeded and treated with DMSO control or increasing concentration of drugs for 7 days and stained with crystal violet. For drug screening, we used SGC epigenetic probe collection. For RNA-seq with bortezomib treatment, 2×10^5 786-O cells were treated with DMSO or 0.005 μM bortezomib and harvested 9 hours after treatment for RNA extraction. For RT-qPCR with SMARCA2/4 ATPase inhibitor treatment, 1×10^5 786-O cells were treated with DMSO or 0.01 μM SMARCA2/4 ATPase inhibitor (Targetmol, T10616, CAS: 2270879-17-7) for 3 days before RNA extraction.
Total RNA was extracted using the Qiagen RNeasy Mini kit. RNA-seq libraries were prepared using Illumina Tru-Seq Stranded Total RNA kit protocol, according to the manufacturer's instructions (Illumina, San Diego, California, USA). […] Sequencing was performed on an Illumina HiSeq4000 sequencer with the paired-end 150 bp read option.
RNA-Seq Pathway Analysis RNA-seq data were mapped to hg19 (h117d5) using STAR, with GENCODE annotation (gencode.v19.annotation.gtf) and recommended settings from STAR manual. Gene expression levels were quantified with STAR. […]

For `CC(C)C[C@H](NC(=O)[C@H](Cc1ccccc1)NC(=O)c1cnccn1)B(O)O` [bortezomib], the “survival, mice bearing PB1-deficient vs PB1-proficient cells” value in the experiment with NCC432 tumors (0.5 mg/kg bortezomib) is given as “survived for a longer duration”. Further, in the experiment on NCC432 tumors (0.5 mg/kg bortezomib, NSG mice), the “tumor response, PB1-deficient vs PB1-proficient isogenic cells” value is reported as “responded better”. Further, the median survival came to 49 days with NCC432 tumors (NCC432 EV, 0.5 mg/kg bortezomib arm n=14, PBS arm 42 days) and 58 days with NCC432 tumors (NCC432 PBRM1, 0.5 mg/kg bortezomib arm n=14, PBS arm 55 days). Besides, the HR is 2.5 in the experiment on NCC432 tumors (NCC432 EV, bortezomib vs PBS, p=0.0009, log rank test) and 1.2 in the experiment with NCC432 tumors (NCC432 PBRM1, bortezomib vs PBS, p=0.5, log rank test). In addition, the “effect on NF-κB pathway by global transcriptomics” value in experiment [1] (0.005 μM bortezomib, 9 hours, RNA-seq) is “downregulation of the NF-κB pathway”. Besides, the “effect on NF-κB activation (summary)” value in experiment [1] (Example 2 summary) is recorded as “reverses NF-κB activation”. The “additional targets upregulated by PB1 loss that were suppressed” value in experiment [1] (in addition to RELA targets, 786-O) came to 127 targets.
